{"source": "patent US20120231141A1", "about": "“BITTERNESS-IMPROVING AGENT FOR BITTER FOOD AND DRINK AND ASTRINGENCY-IMPROVING AGENT FOR ASTRINGENT FOOD AND DRINK” (priority 2009, published 2012)", "key": {"[1]": {"experiment": "Bitterness evaluation of grapefruit juice (flavor comparison by 10 panelists)", "type": "in vivo", "conditions": "for A: the number of panelists who felt no difference from 3-n-butylphthalide-free / B: the number of panelists who felt some reduction in bitterness / Flavor judgment: the number of panelists who judged it as most proper bitterness / N: the number of panelists who hardly felt bitterness: 10 panelists", "method": "3-n-Butylphthalide was added as a bitterness-improving agent (masking agent for bitterness) of the present invention to commercially available grapefruit juice at the concentrations shown in the following Table 2 to obtain grapefruit juice."}, "[2]": {"experiment": "Bitterness evaluation of green tea drink (flavor comparison by 10 panelists)", "type": "in vivo", "conditions": "for A: the number of panelists who felt no difference from sedanolide-free / B: the number of panelists who fell some reduction in bitterness / Flavor judgment: the number of panelists who judged it as most proper bitterness / N: the number of panelists who hardly felt bitterness: 10 panelists", "method": "Five thousand grams of hot water (containing 0.03% of sodium ascorbate) of 60° C. was added to 100 g of Chinese green tea (second picking tea) produced by Josei (heat treatment by steaming), followed by extraction for 5 min while sometimes stirring. Subsequently, solid-liquid separation with flannel filter was performed to obtain 4500 g of an extract (Bx 0.6°). To the extract, 0.04 g of tannase (Kikkoman Corporation: 5000 U/g) was added. The resulting mixture was left to stand at 40° C. for 1 hour to decompose the gallate-type catechin to non-gallate-type catechin (gallate-type catechin has strong astringency, and non-gallate-type catechin has strong bitterness), followed by heating at 90° C. for 1 min to inactivate the enzyme. After cooling to 20° C., the extract was adjusted to Bx 0.5° with deionized water to obtain green tea extract having strong bitterness. Sedanolide was added as a taste-improving agent (masking agent for bitterness) of the present invention to the resulting extract at the concentrations shown in the following Table 3 to obtain green tea drinks."}, "[3]": {"conditions": "3-n-butylphthalide 0.01 ppb in grapefruit juice"}, "[4]": {"conditions": "3-n-butylphthalide 0.01 ppm in grapefruit juice"}, "[5]": {"conditions": "3-n-butylphthalide 0.1 ppb in grapefruit juice"}, "[6]": {"conditions": "3-n-butylphthalide 0.1 ppm in grapefruit juice"}, "[7]": {"conditions": "3-n-butylphthalide 1 ppb in grapefruit juice"}, "[8]": {"conditions": "3-n-butylphthalide 1 ppm in grapefruit juice"}, "[9]": {"conditions": "3-n-butylphthalide 1 ppt in grapefruit juice"}, "[10]": {"conditions": "3-n-butylphthalide 10 ppm in grapefruit juice"}, "[11]": {"conditions": "sedanolide 0.01 ppb in green tea drink having strong bitterness"}, "[12]": {"conditions": "sedanolide 0.01 ppm in green tea drink having strong bitterness"}, "[13]": {"conditions": "sedanolide 0.1 ppb in green tea drink having strong bitterness"}, "[14]": {"conditions": "sedanolide 0.1 ppm in green tea drink having strong bitterness"}, "[15]": {"conditions": "sedanolide 1 ppb in green tea drink having strong bitterness"}, "[16]": {"conditions": "sedanolide 1 ppm in green tea drink having strong bitterness"}, "[17]": {"conditions": "sedanolide 1 ppt in green tea drink having strong bitterness"}, "[18]": {"conditions": "sedanolide 10 ppm in green tea drink having strong bitterness"}}, "data": [{"compound": "CCCCC1OC(=O)c2ccccc21", "note": "(stereo not shown) [3-n-butylphthalide]", "values": [{"measurement": "A: the number of panelists who felt no difference from 3-n-butylphthalide-free", "setting": "[1]; [3]", "result": 7}, {"measurement": "B: the number of panelists who felt some reduction in bitterness", "setting": "[1]; [3]", "result": 2}, {"measurement": "Flavor judgment: the number of panelists who judged it as most proper bitterness", "setting": "[1]; [3]", "result": 0}, {"measurement": "N: the number of panelists who hardly felt bitterness", "setting": "[1]; [3]", "result": 1}, {"measurement": "reduction in bitterness at low concentration", "setting": "[1]; 3-n-butylphthalide 0.01 ppb, grapefruit juice", "result": "some panelists felt some reduction in bitterness"}, {"measurement": "A: the number of panelists who felt no difference from 3-n-butylphthalide-free", "setting": "[1]; [4]", "result": 2}, {"measurement": "B: the number of panelists who felt some reduction in bitterness", "setting": "[1]; [4]", "result": 6}, {"measurement": "Flavor judgment: the number of panelists who judged it as most proper bitterness", "setting": "[1]; [4]", "result": 2}, {"measurement": "N: the number of panelists who hardly felt bitterness", "setting": "[1]; [4]", "result": 2}, {"measurement": "A: the number of panelists who felt no difference from 3-n-butylphthalide-free", "setting": "[1]; [5]", "result": 4}, {"measurement": "B: the number of panelists who felt some reduction in bitterness", "setting": "[1]; [5]", "result": 6}, {"measurement": "Flavor judgment: the number of panelists who judged it as most proper bitterness", "setting": "[1]; [5]", "result": 0}, {"measurement": "N: the number of panelists who hardly felt bitterness", "setting": "[1]; [5]", "result": 0}, {"measurement": "A: the number of panelists who felt no difference from 3-n-butylphthalide-free", "setting": "[1]; [6]", "result": 0}, {"measurement": "B: the number of panelists who felt some reduction in bitterness", "setting": "[1]; [6]", "result": 4}, {"measurement": "Flavor judgment: the number of panelists who judged it as most proper bitterness", "setting": "[1]; [6]", "result": 5}, {"measurement": "N: the number of panelists who hardly felt bitterness", "setting": "[1]; [6]", "result": 6}, {"measurement": "A: the number of panelists who felt no difference from 3-n-butylphthalide-free", "setting": "[1]; [7]", "result": 3}, {"measurement": "B: the number of panelists who felt some reduction in bitterness", "setting": "[1]; [7]", "result": 7}, {"measurement": "Flavor judgment: the number of panelists who judged it as most proper bitterness", "setting": "[1]; [7]", "result": 0}, {"measurement": "N: the number of panelists who hardly felt bitterness", "setting": "[1]; [7]", "result": 0}, {"measurement": "A: the number of panelists who felt no difference from 3-n-butylphthalide-free", "setting": "[1]; [8]", "result": 0}, {"measurement": "B: the number of panelists who felt some reduction in bitterness", "setting": "[1]; [8]", "result": 4}, {"measurement": "Flavor judgment: the number of panelists who judged it as most proper bitterness", "setting": "[1]; [8]", "result": 3}, {"measurement": "N: the number of panelists who hardly felt bitterness", "setting": "[1]; [8]", "result": 6}, {"measurement": "A: the number of panelists who felt no difference from 3-n-butylphthalide-free", "setting": "[1]; [9]", "result": 9}, {"measurement": "B: the number of panelists who felt some reduction in bitterness", "setting": "[1]; [9]", "result": 1}, {"measurement": "Flavor judgment: the number of panelists who judged it as most proper bitterness", "setting": "[1]; [9]", "result": 0}, {"measurement": "N: the number of panelists who hardly felt bitterness", "setting": "[1]; [9]", "result": 0}, {"measurement": "A: the number of panelists who felt no difference from 3-n-butylphthalide-free", "setting": "[1]; [10]", "result": 0}, {"measurement": "B: the number of panelists who felt some reduction in bitterness", "setting": "[1]; [10]", "result": 3}, {"measurement": "Flavor judgment: the number of panelists who judged it as most proper bitterness", "setting": "[1]; [10]", "result": 0}, {"measurement": "N: the number of panelists who hardly felt bitterness", "setting": "[1]; [10]", "result": 7}, {"measurement": "overall result of bitterness masking", "setting": "[1]; amount of 3-n-butylphthalide about 0.1 ppb to 1 ppm, grapefruit juice", "result": "particularly good results were obtained"}, {"measurement": "bitterness of grapefruit juice (judgment)", "setting": "[1]; grapefruit juice containing 0.01 ppb to 10 ppm of 3-n-butylphthalide", "result": "masked"}]}, {"compound": "CCCCC1OC(=O)C2=CCCCC21", "note": "(stereo not shown) [sedanolide]", "values": [{"measurement": "overall result of bitterness masking", "setting": "[2]; amount of sedanolide about 0.1 ppb to 1 ppm, green tea drink", "result": "particularly good results were obtained"}, {"measurement": "bitterness of green tea drink (judgment)", "setting": "[2]; green tea drink containing 0.01 ppb to 10 ppm of sedanolide", "result": "masked"}, {"measurement": "A: the number of panelists who felt no difference from sedanolide-free", "setting": "[2]; [11]", "result": 8}, {"measurement": "B: the number of panelists who fell some reduction in bitterness", "setting": "[2]; [11]", "result": 2}, {"measurement": "Flavor judgment: the number of panelists who judged it as most proper bitterness", "setting": "[2]; [11]", "result": 0}, {"measurement": "N: the number of panelists who hardly felt bitterness", "setting": "[2]; [11]", "result": 0}, {"measurement": "reduction in bitterness at low concentration", "setting": "[2]; sedanolide 0.01 ppb, green tea drink", "result": "some panelists felt some reduction in bitterness"}, {"measurement": "A: the number of panelists who felt no difference from sedanolide-free", "setting": "[2]; [12]", "result": 2}, {"measurement": "B: the number of panelists who fell some reduction in bitterness", "setting": "[2]; [12]", "result": 6}, {"measurement": "Flavor judgment: the number of panelists who judged it as most proper bitterness", "setting": "[2]; [12]", "result": 2}, {"measurement": "N: the number of panelists who hardly felt bitterness", "setting": "[2]; [12]", "result": 2}, {"measurement": "A: the number of panelists who felt no difference from sedanolide-free", "setting": "[2]; [13]", "result": 4}, {"measurement": "B: the number of panelists who fell some reduction in bitterness", "setting": "[2]; [13]", "result": 5}, {"measurement": "Flavor judgment: the number of panelists who judged it as most proper bitterness", "setting": "[2]; [13]", "result": 0}, {"measurement": "N: the number of panelists who hardly felt bitterness", "setting": "[2]; [13]", "result": 1}, {"measurement": "A: the number of panelists who felt no difference from sedanolide-free", "setting": "[2]; [14]", "result": 0}, {"measurement": "B: the number of panelists who fell some reduction in bitterness", "setting": "[2]; [14]", "result": 5}, {"measurement": "Flavor judgment: the number of panelists who judged it as most proper bitterness", "setting": "[2]; [14]", "result": 5}, {"measurement": "N: the number of panelists who hardly felt bitterness", "setting": "[2]; [14]", "result": 5}, {"measurement": "A: the number of panelists who felt no difference from sedanolide-free", "setting": "[2]; [15]", "result": 3}, {"measurement": "B: the number of panelists who fell some reduction in bitterness", "setting": "[2]; [15]", "result": 6}, {"measurement": "Flavor judgment: the number of panelists who judged it as most proper bitterness", "setting": "[2]; [15]", "result": 0}, {"measurement": "N: the number of panelists who hardly felt bitterness", "setting": "[2]; [15]", "result": 1}, {"measurement": "A: the number of panelists who felt no difference from sedanolide-free", "setting": "[2]; [16]", "result": 0}, {"measurement": "B: the number of panelists who fell some reduction in bitterness", "setting": "[2]; [16]", "result": 5}, {"measurement": "Flavor judgment: the number of panelists who judged it as most proper bitterness", "setting": "[2]; [16]", "result": 3}, {"measurement": "N: the number of panelists who hardly felt bitterness", "setting": "[2]; [16]", "result": 5}, {"measurement": "A: the number of panelists who felt no difference from sedanolide-free", "setting": "[2]; [17]", "result": 10}, {"measurement": "B: the number of panelists who fell some reduction in bitterness", "setting": "[2]; [17]", "result": 0}, {"measurement": "Flavor judgment: the number of panelists who judged it as most proper bitterness", "setting": "[2]; [17]", "result": 0}, {"measurement": "N: the number of panelists who hardly felt bitterness", "setting": "[2]; [17]", "result": 0}, {"measurement": "A: the number of panelists who felt no difference from sedanolide-free", "setting": "[2]; [18]", "result": 0}, {"measurement": "B: the number of panelists who fell some reduction in bitterness", "setting": "[2]; [18]", "result": 5}, {"measurement": "Flavor judgment: the number of panelists who judged it as most proper bitterness", "setting": "[2]; [18]", "result": 0}, {"measurement": "N: the number of panelists who hardly felt bitterness", "setting": "[2]; [18]", "result": 5}]}]}
